According to paper PMC3977580 (Biochemistry, 2014):

Molecular target: T1, SaMTAN (5′-methylthioadenosine/S-adenosylhomocysteine nucleosidase) (Staphylococcus aureus, UniProt Q99TQ0)
T1 sequence (Q99TQ0 1-228): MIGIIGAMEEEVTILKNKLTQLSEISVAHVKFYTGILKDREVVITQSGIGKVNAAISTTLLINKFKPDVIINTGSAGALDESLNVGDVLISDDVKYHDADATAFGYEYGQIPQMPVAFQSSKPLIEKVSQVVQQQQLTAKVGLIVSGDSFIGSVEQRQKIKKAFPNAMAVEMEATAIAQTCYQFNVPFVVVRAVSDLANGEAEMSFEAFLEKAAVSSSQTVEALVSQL
Assay: ITC
Assay type: binding

Kd: 9 nM
Compound: CSC[C@H]1CN(Cc2c[nH]c3c(N)ncnc23)C[C@@H]1O [MT-DADMe-ImmA]
